# Patent US11780826B2 (Amgen Inc., priority 2017, dated 2023)
# Tested on: Bovine cardiac myofibrils
# Experiment: In vitro model of dose-dependent myofibril ATPase modulation (AC1.4, pyruvate kinase/lactate dehydrogenase-coupled ATPase assay at pCa25)
# Assay type: biochemical
# Details: concentration at which ATPase activity was 1.4-fold higher than the bottom of the dose curve, mean of a minimum of two independent tests
# How it was run: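 Absorbance at 340 nm tracked ATP hydrolysis through pyruvate kinase/lactate dehydrogenase coupling (0.5 mM NADH, 1.5 mM PEP). Myofibrils from detergent-homogenized bovine heart, 1 mM ATP, pH 6.80, EGTA/CaCl2 buffering. Dose-response curves fitted with a four-parameter Hill equation.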
row,Compound,AC1.4
1,"O=C(NCc1ccc(C(F)(F)F)cc1)[C@H]1CCCN1C(=O)[C@H]1CCCN(S(=O)(=O)N2CC(O)(c3ccccc3)C2)C1 [Example 371, 1-(((3S)-1-((3-hydroxy-3-phenyl-1-azetidinyl)sulfonyl)-3-piperidinyl)carbonyl)-N-(4-(trifluoromethyl)benzyl)-D-prolinamide]",1.216 µM
2,"N#CC1CN(S(=O)(=O)N2CCC[C@H](C(=O)N3CCC[C@@H]3C(=O)NCc3ccc(C(F)(F)F)cn3)C2)C1 [Example 373, 1-(((3S)-1-((3-cyano-1-azetidinyl)sulfonyl)-3-piperidinyl)carbonyl)-N-((5-(trifluoromethyl)-2-pyridinyl)methyl)-D-prolinamide]",1.2258 µM
3,"N#CC1CN(S(=O)(=O)c2cccc(C(=O)N3CCC[C@@H]3C(=O)NCc3ncc(Cl)s3)c2)C1 [Example 376, N-((5-chloro-1,3-thiazol-2-yl)methyl)-1-((3-((3-cyano-1-azetidinyl)sulfonyl)phenyl)carbonyl)-D-prolinamide]",1.2296 µM
4,"N#CC1CN(S(=O)(=O)N2CCC[C@H](C(=O)N3CCC[C@@H]3C(=O)NCc3cc(F)cc(C(F)(F)F)c3)C2)C1 [Example 379, 1-(((3S)-1-((3-cyano-1-azetidinyl)sulfonyl)-3-piperidinyl)carbonyl)-N-(3-fluoro-5-(trifluoromethyl)benzyl)-D-prolinamide]",1.237 µM
5,"O=C(NCc1ccc(C(F)(F)F)cc1)[C@H]1CCCN1C(=O)[C@H]1CCCN(S(=O)(=O)N2CC(C(F)(F)F)C2)C1 [Example 380, 1-(((3S)-1-((3-(trifluoromethyl)-1-azetidinyl)sulfonyl)-3-piperidinyl)carbonyl)-N-(4-(trifluoromethyl)benzyl)-D-prolinamide]",1.257 µM
6,"Cc1cc(F)ccc1CNC(=O)[C@H]1CCCN1C(=O)[C@H]1CCCN(S(=O)(=O)N2CC(C#N)C2)C1 [Example 381, 1-(((3S)-1-((3-cyano-1-azetidinyl)sulfonyl)-3-piperidinyl)carbonyl)-N-(4-fluoro-2-methylbenzyl)-D-prolinamide]",1.268 µM
7,"O=C(NCc1ccc(C(F)(F)F)cc1)[C@H]1CCCN1C(=O)[C@H]1CCCN(S(=O)(=O)N2CC[C@H](C(F)(F)F)C2)C1 [Example 384, N-(4-(trifluoromethyl)benzyl)-1-(((3S)-1-(((3S)-3-(trifluoromethyl)-1-pyrrolidinyl)sulfonyl)-3-piperidinyl)carbonyl)-D-prolinamide]",1.295 µM
8,"COc1cc(CNC(=O)[C@H]2CCCN2C(=O)[C@H]2CCCN(S(=O)(=O)N3CC(C#N)C3)C2)ccc1C [Example 387, 1-(((3S)-1-((3-cyano-1-azetidinyl)sulfonyl)-3-piperidinyl)carbonyl)-N-(3-methoxy-4-methylbenzyl)-D-prolinamide]",1.34 µM
9,"N#CC1CN(S(=O)(=O)N2CCC[C@H](C(=O)N3CCC[C@@H]3C(=O)NCc3cc(Cl)cc(Cl)c3)C2)C1 [Example 390, 1-(((3S)-1-((3-cyano-1-azetidinyl)sulfonyl)-3-piperidinyl)carbonyl)-N-(3,5-dichlorobenzyl)-D-prolinamide]",1.3495 µM
10,"C[C@@H](NC(=O)[C@H]1CCCN1C(=O)[C@H]1CCCN(S(=O)(=O)N2CC(C#N)C2)C1)c1cc(F)cc(F)c1 [Example 391, 1-(((3S)-1-((3-cyano-1-azetidinyl)sulfonyl)-3-piperidinyl)carbonyl)-N-((1R)-1-(3,5-difluorophenyl)ethyl)-D-prolinamide]",1.3505 µM
11,"N#CC1CN(S(=O)(=O)N2CCC[C@H](C(=O)N3CCC[C@@H]3C(=O)NCc3cc(F)ccc3F)C2)C1 [Example 394, 1-(((3S)-1-((3-cyano-1-azetidinyl)sulfonyl)-3-piperidinyl)carbonyl)-N-(2,5-difluorobenzyl)-D-prolinamide]",1.3725 µM
12,"N#CC1CN(S(=O)(=O)c2cccc(C(=O)N3CCC[C@@H]3C(=O)NCc3ccccc3Cl)c2)C1 [Example 396, N-(2-chlorobenzyl)-1-((3-((3-cyano-1-azetidinyl)sulfonyl)phenyl)carbonyl)-D-prolinamide]",1.3975 µM

# The remaining lines, values ahead:
row,AC1.4,Compound
1,1.1795 µM,"O=C(N[C@@H](c1ccc(C(F)(F)F)cc1F)C1CC1)[C@H]1CCCN1C(=O)c1cccc(C2CC2)c1 [Example 369, 1-(3-cyclopropylbenzoyl)-N-((R)-cyclopropyl(2-fluoro-4-(trifluoromethyl)phenyl)methyl)-D-prolinamide]"
2,1.2085 µM,"CC(=O)Nc1ccccc1C(=O)N1[C@@H](C(=O)N[C@@H](c2ccc(C(F)(F)F)cc2F)C2CC2)C[C@H]2C[C@H]21 [Example 372, (1R,3R,5R)-2-(2-acetamidobenzoyl)-N-((R)-cyclopropyl(2-fluoro-4-(trifluoromethyl)phenyl)methyl)-2-azabicyclo[3.1.0]hexane-3-carboxamide]"
3,1.2265 µM,"O=C(N[C@@H](c1cc(F)c(Cl)cc1F)C1CC1)[C@H]1C[C@H]2C[C@H]2N1C(=O)c1cncc(C(F)(F)F)c1 [Example 374, (1R,3R,5R)-N-((R)-(4-chloro-2,5-difluorophenyl)(cyclopropyl)methyl)-2-((5-(trifluoromethyl)-3-pyridinyl)carbonyl)-2-azabicyclo[3.1.0]hexane-3-carboxamide]"
4,1.2153 µM,"CS(=O)(=O)c1cccc(C(=O)N2[C@@H](C(=O)N[C@@H](c3ccc(C(F)(F)F)cc3)C3COC3)C[C@H]3C[C@H]32)c1 [Example 375, (1R,3R,5R)-2-(3-(methylsulfonyl)benzoyl)-N-((R)-3-oxetanyl(4-(trifluoromethyl)phenyl)methyl)-2-azabicyclo[3.1.0]hexane-3-carboxamide]"
5,1.216 µM,"CS(=O)(=O)c1cccc(C(=O)N2C=CC[C@@H]2C(=O)N[C@@H](c2ccc(C(F)(F)F)cc2F)C2CC2)c1 [Example 377, (2R)—N—((R)-cyclopropyl(2-fluoro-4-(trifluoromethyl)phenyl)methyl)-1-(3-(methylsulfonyl)benzoyl)-2,3-dihydro-1H-pyrrole-2-carboxamide]"
6,1.227 µM,"O=C(N[C@@H](c1ccc(C(F)(F)F)cc1F)C1CC1)[C@H]1CCCN1C(=O)c1cccc(Cl)c1 [Example 378, 1-(3-chlorobenzoyl)-N-((R)-cyclopropyl(2-fluoro-4-(trifluoromethyl)phenyl)methyl)-D-prolinamide]"
7,1.232 µM,"CCS(=O)(=O)c1cccc(C(=O)N2[C@@H](C(=O)N[C@@H](c3ccc(C(F)(F)F)cc3F)C3(O)CC3)C[C@H]3C[C@H]32)c1 [Example 382, (1R,3R,5R)-2-(3-(ethylsulfonyl)benzoyl)-N-((S)-(2-fluoro-4-(trifluoromethyl)phenyl)(1-hydroxycyclopropyl)methyl)-2-azabicyclo[3.1.0]hexane-3-carboxamide]"
8,1.2725 µM,"CCNc1cnc(C)cc1C(=O)N1[C@@H](C(=O)N[C@@H](c2ccc(C(F)(F)F)cc2F)C2CC2)C[C@H]2C[C@H]21 [Example 383, (1R,3R,5R)-N-((R)-cyclopropyl(2-fluoro-4-(trifluoromethyl)phenyl)methyl)-2-((5-(ethylamino)-2-methyl-4-pyridinyl)carbonyl)-2-azabicyclo[3.1.0]hexane-3-carboxamide]"
9,1.3335 µM,"N#CC1CN(S(=O)(=O)c2cccc(C(=O)N3CCC[C@@H]3C(=O)N[C@@H](CO)c3cccc(C(F)(F)F)c3)c2)C1 [Example 386, 1-(3-((3-cyano-1-azetidinyl)sulfonyl)benzoyl)-N-((1R)-2-hydroxy-1-(3-(trifluoromethyl)phenyl)ethyl)-D-prolinamide]"
10,1.3405 µM,"COC[C@H](NC(=O)[C@H]1CCCN1C(=O)[C@H]1CCCN(S(=O)(=O)N2CC(C#N)C2)C1)c1cccc(C(F)(F)F)c1 [Example 388, 1-(((3S)-1-((3-cyano-1-azetidinyl)sulfonyl)-3-piperidinyl)carbonyl)-N-((1R)-2-methoxy-1-(3-(trifluoromethyl)phenyl)ethyl)-D-prolinamide,1-(((3S)-1-((3-cyano-1-azetidinyl)sulfonyl)-3-piperidinyl)carbonyl)-N-((1S)-2-methoxy-1-(3-(trifluoromethyl)phenyl)ethyl)-D-prolinamide]"
11,1.2325 µM,"CCS(=O)(=O)c1cc(C(=O)N2[C@@H](C(=O)N[C@@H](c3cc(F)c(Cl)cc3F)C3CC3)C[C@H]3C[C@H]32)ccn1 [Example 389, (1R,3R,5R)-N-((R)-(4-chloro-2,5-difluorophenyl)(cyclopropyl)methyl)-2-((2-(ethylsulfonyl)-4-pyridinyl)carbonyl)-2-azabicyclo[3.1.0]hexane-3-carboxamide]"
12,1.268 µM,"O=C(N[C@@H](c1ccc(C(F)(F)F)cc1F)C1COC1)[C@H]1C[C@H]2C[C@H]2N1C(=O)c1ccnc(C(F)(F)F)c1 [Example 392, (1R,3R,5R)-N-((R)-(2-fluoro-4-(trifluoromethyl)phenyl)(3-oxetanyl)methyl)-2-((2-(trifluoromethyl)-4-pyridinyl)carbonyl)-2-azabicyclo[3.1.0]hexane-3-carboxamide]"
13,1.3425 µM,"CS(=O)(=O)c1cc(C(=O)N2C[C@H]3C[C@H]3[C@@H]2C(=O)N[C@@H](c2cc(F)c(Cl)cc2F)C2CC2)ccn1 [Example 393, (1R,2R,5S)-N-((R)-(4-chloro-2,5-difluorophenyl)(cyclopropyl)methyl)-3-((2-(methylsulfonyl)-4-pyridinyl)carbonyl)-3-azabicyclo[3.1.0]hexane-2-carboxamide]"
14,1.361 µM,"CCS(=O)(=O)c1cccc(C(=O)N2[C@@H](C(=O)N[C@@H](c3cc(F)c(Cl)cc3F)[C@H](C)O)C[C@H]3C[C@H]32)c1 [Example 395, (1R,3R,5R)-N-((1S,2S)-1-(4-chloro-2,5-difluorophenyl)-2-hydroxypropyl)-2-(3-(ethylsulfonyl)benzoyl)-2-azabicyclo[3.1.0]hexane-3-carboxamide]"
